Assay results reported in patent US9359308B2, “Pyrazine kinase inhibitors” (Portola Pharmaceuticals, Inc., priority 2011, dated 2016).
pIC50: −log10 of the molar value.

biological target: T1, full length active recombinant SYK enzyme (Homo sapiens, UniProt P43405); experiment: Inhibition of Syk tyrosine phosphorylation activity (LANCE TR-FRET kinase assay); type: biochemical; conditions: activity in the Syk assays, class symbols
T1 construct: full length active recombinant SYK enzyme (Millipore, Calif.); purchased Millipore
Procedure, shortened: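 IC50 was derived by non-linear regression of TR-FRET signal (Eu-W1024-PY100 donor, streptavidin-APC acceptor) read 1 h after EDTA quench. The kinase step ran 1 h at room temperature with 1 nM full-length SYK, 550 nM biotinylated DEEDYESP substrate and 100 μM ATP in Tris pH 7.5/MgCl2/DTT at 3% final DMSO.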

Compound	pIC50
NC(=O)c1ncc(N[C@@H]2CCCC(F)(F)[C@@H]2N)nc1Nc1ccnc(C2CC2)c1 [Example 346, 5-((1R,2R)-2-amino-3,3-difluorocyclohexylamino)-3-(2-cyclopropylpyridin-4-ylamino)pyrazine-2-carboxamide]	8.00 to 9.00
CCc1ccc(Nc2nc(N[C@H](CC(C)C)C(N)=O)cnc2C(N)=O)cn1 [Example 347, (R)-5-(1-amino-4-methyl-1-oxopentan-2-ylamino)-3-(6-ethylpyridin-3-ylamino)pyrazine-2-carboxamide]	8.00 to 9.00
CC(C)C[C@@H](Nc1cnc(C(N)=O)c(Nc2ccc(C3CC3)nc2)n1)C(N)=O [Example 348, (R)-5-(1-amino-4-methyl-1-oxopentan-2-ylamino)-3-(6-cyclopropylpyridin-3-ylamino)pyrazine-2-carboxamide]	8.00 to 9.00
CC[C@@H](Nc1cnc(C(N)=O)c(Nc2ccnc(C(F)(F)F)c2)n1)C(N)=O [Example 349, (R)-5-(1-amino-1-oxobutan-2-ylamino)-3-(2-(trifluoromethyl)pyridin-4-ylamino)pyrazine-2-carboxamide]	7.00 to 8.00
CCc1ccc(Nc2nc(N[C@@H]3CCCC[C@@H]3N)cnc2C(N)=O)cn1 [Example 350, 5-((1R,2S)-2-aminocyclohexylamino)-3-(6-ethylpyridin-3-ylamino)pyrazine-2-carboxamide]	8.00 to 9.00
NC(=O)c1ncc(N[C@@H]2CCCC[C@@H]2N)nc1Nc1ccc(C2CC2)nc1 [Example 351, 5-((1R,2S)-2-aminocyclohexylamino)-3-(6-cyclopropylpyridin-3-ylamino)pyrazine-2-carboxamide]	8.00 to 9.00
NC(=O)c1ncc(N[C@@H]2CCCC[C@@H]2N)nc1Nc1ccnc(C2CC2)c1 [Example 352, 5-((1R,2S)-2-aminocyclohexylamino)-3-(2-cyclopropylpyridin-4-ylamino)pyrazine-2-carboxamide]	> 9.00
CC[C@@H](Nc1cnc(C(N)=O)c(Nc2ccnc(N(C)C)c2)n1)C(N)=O [Example 353, (R)-5-(1-amino-1-oxobutan-2-ylamino)-3-(2-(dimethylamino)pyridin-4-ylamino)pyrazine-2-carboxamide]	8.00 to 9.00
CC[C@@H](Nc1cnc(C(N)=O)c(Nc2ccnc(OC3CCC3)c2)n1)C(N)=O [Example 354, (R)-5-(1-amino-1-oxobutan-2-ylamino)-3-(2-cyclobutoxypyridin-4-ylamino)pyrazine-2-carboxamide]	8.00 to 9.00
CCc1cc(Nc2nc(N[C@@H]3CCCC(F)(F)[C@@H]3N)cnc2C(N)=O)ccn1 [Example 355, 5-((1R,2R)-2-amino-3,3-difluorocyclohexylamino)-3-(2-ethylpyridin-4-ylamino)pyrazine-2-carboxamide]	7.00 to 8.00
NC(=O)c1ncc(N[C@@H]2CCCC(F)(F)[C@@H]2N)nc1Nc1ccnc(OC2CCC2)c1 [Example 356, 5-((1R,2R)-2-amino-3,3-difluorocyclohexylamino)-3-(2-cyclobutoxypyridin-4-ylamino)pyrazine-2-carboxamide]	7.00 to 8.00
COc1cc(Nc2nc(N[C@@H]3CCOC[C@@H]3N)cnc2C(N)=O)ccn1 [Example 357, 5-((3R,4R)-3-aminotetrahydro-2H-pyran-4-ylamino)-3-(2-methoxypyridin-4-ylamino)pyrazine-2-carboxamide]	8.00 to 9.00
COc1cncc(Nc2nc(N[C@@H]3CCOC[C@@H]3N)cnc2C(N)=O)c1 [Example 358, 5-((3R,4R)-3-aminotetrahydro-2H-pyran-4-ylamino)-3-(5-methoxypyridin-3-ylamino)pyrazine-2-carboxamide]	8.00 to 9.00
CC[C@@H](Nc1cnc(C(N)=O)c(Nc2ccc(-c3cnn(C)c3)cc2)n1)C(N)=O [Example 359, (R)-5-(1-amino-1-oxobutan-2-ylamino)-3-(4-(1-methyl-1H-pyrazol-4-yl)phenylamino)pyrazine-2-carboxamide]	8.00 to 9.00
COC[C@@H](Nc1cnc(C(N)=O)c(Nc2ccc3ncccc3c2)n1)C(N)=O [Example 360, (R)-5-(1-amino-3-methoxy-1-oxopropan-2-ylamino)-3-(quinolin-6-ylamino)pyrazine-2-carboxamide]	7.00 to 8.00
NC(=O)c1ncc(N[C@H](Cc2ccncc2)C(N)=O)nc1Nc1ccc2ncccc2c1 [Example 361, (R)-5-(1-amino-1-oxo-3-(pyridin-4-yl)propan-2-ylamino)-3-(quinolin-6-ylamino)pyrazine-2-carboxamide]	7.00 to 8.00
NC(=O)c1ncc(NC2(C(N)=O)CC2)nc1Nc1cnc2ccccc2c1 [Example 362, 5-(1-carbamoylcyclopropylamino)-3-(quinolin-3-ylamino)pyrazine-2-carboxamide]	7.00 to 8.00
NC(=O)c1ncc(N[C@@H]2CCCC(F)(F)[C@@H]2N)nc1Nc1cncc2ccccc12 [Example 363, 5-((1R,2R)-2-amino-3,3-difluorocyclohexylamino)-3-(isoquinolin-4-ylamino)pyrazine-2-carboxamide]	7.00 to 8.00
NC(=O)c1ncc(N[C@@H]2CCCC(F)(F)[C@@H]2N)nc1Nc1ccc2cnccc2c1 [Example 364, 5-((1R,2R)-2-amino-3,3-difluorocyclohexylamino)-3-(isoquinolin-6-ylamino)pyrazine-2-carboxamide]	8.00 to 9.00

Compound	pIC50
NC(=O)c1ncc(N[C@@H]2CCCC(F)(F)[C@@H]2N)nc1Nc1ccc2nccnc2c1 [Example 365, 5-((1R,2R)-2-amino-3,3-difluorocyclohexylamino)-3-(quinoxalin-6-ylamino)pyrazine-2-carboxamide]	7.00 to 8.00
NC(=O)c1ncc(N[C@@H]2CCCC(F)(F)[C@@H]2N)nc1Nc1ccnc2ccccc12 [Example 366, 5-((1R,2R)-2-amino-3,3-difluorocyclohexylamino)-3-(quinolin-4-ylamino)pyrazine-2-carboxamide]	7.00 to 8.00
CC[C@@H](Nc1cnc(C(N)=O)c(Nc2cncc3ccccc23)n1)C(N)=O [Example 367, (R)-5-(1-amino-1-oxobutan-2-ylamino)-3-(isoquinolin-4-ylamino)pyrazine-2-carboxamide]	8.00 to 9.00
CC[C@@H](Nc1cnc(C(N)=O)c(Nc2ccc3cnccc3c2)n1)C(N)=O [Example 368, (R)-5-(1-amino-1-oxobutan-2-ylamino)-3-(isoquinolin-6-ylamino)pyrazine-2-carboxamide]	8.00 to 9.00
CC[C@@H](Nc1cnc(C(N)=O)c(Nc2ccc3nccnc3c2)n1)C(N)=O [Example 369, (R)-5-(1-amino-1-oxobutan-2-ylamino)-3-(quinoxalin-6-ylamino)pyrazine-2-carboxamide]	8.00 to 9.00
CC[C@@H](Nc1cnc(C(N)=O)c(Nc2ccnc3ccccc23)n1)C(N)=O [Example 370, (R)-5-(1-amino-1-oxobutan-2-ylamino)-3-(quinolin-4-ylamino)pyrazine-2-carboxamide]	8.00 to 9.00
NC(=O)c1ncc(N[C@@H]2CCCC(F)(F)[C@@H]2N)nc1Nc1cccnc1 [Example 371, 5-((1R,2R)-2-amino-3,3-difluorocyclohexylamino)-3-(pyridin-3-ylamino)pyrazine-2-carboxamide]	7.00 to 8.00
NC(=O)c1ncc(N[C@@H]2CCCC(F)(F)[C@@H]2N)nc1Nc1cccc(F)c1 [Example 372, 5-((1R,2R)-2-amino-3,3-difluorocyclohexylamino)-3-(3-fluorophenylamino)pyrazine-2-carboxamide]	7.00 to 8.00
CC[C@@H](Nc1cnc(C(N)=O)c(Nc2cc(C)ns2)n1)C(N)=O [Example 373, (R)-5-(1-amino-1-oxobutan-2-ylamino)-3-(3-methylisothiazol-5-ylamino)pyrazine-2-carboxamide]	8.00 to 9.00
Cc1cc(Nc2nc(N[C@H](CC3CC3)C(N)=O)cnc2C(N)=O)sn1 [Example 374, (R)-5-(1-amino-3-cyclopropyl-1-oxopropan-2-ylamino)-3-(3-methylisothiazol-5-ylamino)pyrazine-2-carboxamide]	8.00 to 9.00
CC[C@@H](Nc1cnc(C(N)=O)c(Nc2cccc3ncccc23)n1)C(N)=O [Example 375, (R)-5-(1-amino-1-oxobutan-2-ylamino)-3-(quinolin-5-ylamino)pyrazine-2-carboxamide]	8.00 to 9.00
CC[C@@H](Nc1cnc(C(N)=O)c(Nc2ccc3cccnc3c2)n1)C(N)=O [Example 376, (R)-5-(1-amino-1-oxobutan-2-ylamino)-3-(quinolin-7-ylamino)pyrazine-2-carboxamide]	8.00 to 9.00
CC[C@@H](Nc1cnc(C(N)=O)c(Nc2cccc3ccncc23)n1)C(N)=O [Example 377, (R)-5-(1-amino-1-oxobutan-2-ylamino)-3-(isoquinolin-8-ylamino)pyrazine-2-carboxamide]	6.00 to 7.00
CC[C@@H](Nc1cnc(C(N)=O)c(Nc2cccc3cnccc23)n1)C(N)=O [Example 378, (R)-5-(1-amino-1-oxobutan-2-ylamino)-3-(isoquinolin-5-ylamino)pyrazine-2-carboxamide]	7.00 to 8.00
CC[C@@H](Nc1cnc(C(N)=O)c(Nc2ccc3ccncc3c2)n1)C(N)=O [Example 379, (R)-5-(1-amino-1-oxobutan-2-ylamino)-3-(isoquinolin-7-ylamino)pyrazine-2-carboxamide]	8.00 to 9.00
CC[C@@H](Nc1cnc(C(N)=O)c(Nc2cnc3ncccc3c2)n1)C(N)=O [Example 380, (R)-3-(1,8-naphthyridin-3-ylamino)-5-(1-amino-1-oxobutan-2-ylamino)pyrazine-2-carboxamide]	8.00 to 9.00
CC[C@@H](Nc1cnc(C(N)=O)c(Nc2cnc3ccncc3c2)n1)C(N)=O [Example 381, (R)-3-(1,6-naphthyridin-3-ylamino)-5-(1-amino-1-oxobutan-2-ylamino)pyrazine-2-carboxamide]	8.00 to 9.00
NC(=O)CNc1cnc(C(N)=O)c(Nc2ccc3ncccc3c2)n1 [Example 382, 5-(2-amino-2-oxoethylamino)-3-(quinolin-6-ylamino)pyrazine-2-carboxamide]	7.00 to 8.00
